Patent US7282512B2, “Cycloalkyl ketoamides derivatives useful as cathepsin K inhibitors” (SmithKline Beecham Corporation, priority 2002, dated 2007)

Molecular target: T1, human cathepsin K (Homo sapiens, UniProt P43235)
T1 construct: The proform of cathepsin K was converted to mature cathepsin K by brief exposure to pH 4; made in house; host or cells: baculovirus; Trichoplusia ni High Five cells (virus raised in Sf-9)
T1 sequence (P43235 115-329): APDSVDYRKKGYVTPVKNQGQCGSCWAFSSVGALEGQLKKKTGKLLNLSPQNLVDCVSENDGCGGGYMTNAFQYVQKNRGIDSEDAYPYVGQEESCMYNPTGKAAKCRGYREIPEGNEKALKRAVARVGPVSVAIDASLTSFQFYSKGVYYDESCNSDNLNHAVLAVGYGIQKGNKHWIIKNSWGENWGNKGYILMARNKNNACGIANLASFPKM
Assay: cathepsin K inhibition assay, fluorogenic substrate Cbz-Phe-Arg-AMC, progress curve method
Type: biochemical
Conditions: Table 1; human recombinant enzyme, pH 5.5, 30° C., 10 μM substrate; read-out: hcatK Ki
Experimental: All assays for cathepsin K were carried out with human and rat recombinant enzyme. Assays for cathepsins S & V were also carried out with human recombinant enzyme. Assays for human cathepsins B, H, and L were carried out with enzyme, purchased from Athens Research and Technology, Inc., prepared from human liver tissue. […] A stock substrate solution of Cbz-Phe-Arg-AMC was prepared at a concentration of 50 mM in dimethyl sulfoxide. This substrate was diluted into the assay for a final substrate concentration of 10 μM in the rat cathepsin K, human cathepsin K, and human cathepsin B assays; a final substrate concentration of 5 μM in the human cathepsin L assay; and a final substrate concentration of 2 μM in the human cathepsin V assay.
All assays contained 10% dimethyl sulfoxide. […] All assays were conducted at 30° C. Product fluorescence (excitation at 360 nm; emission at 440 nm, (except cathepsin H which used excitation at 340 nm; emission at 420 nm)) was monitored with a PerSeptive Biosystems Cytofluor II fluorescence plate reader. Product progress curves were generated over 2.3 h monitoring the formation of 7-amino-4-methylcoumarin product (or β-naphthalamide for cathepsin H).
Two liters of Spodoptera frugiperda (Sf-9) cells (ATCC) were grown in Grace's Supplemented medium (Life Technologies) supplemented with 2 g/L glucose, 10% fetal bovine serum (HyClone) and 0.1% pluronic F-68 (Life Technologies). […] The cells continued to grow for 72 h post-infection, before the virus was harvested by centrifugation at 1400×g for 30 min.
One and one-half liters of Trichoplusia ni (T. ni) High Five (™) cells [JRH Biosciences, Woodland, Calif. […] Media were separated from cells at a rate of 1 L/min using the Centritech 100 (™) continuous-flow centrifuge (DuPont) operating at 200×g.
Protein Purification: Media (human and rat) were filtered through a Whatman 3 filter, and then loaded onto a 25 mL Poros HS II (26 mm×47 mm) cation exchange column equilibrated in 25 mM sodium acetate at pH 5.5 (equilibration buffer). The column was washed until the absorbance reached the baseline value, and then the protein was eluted with a linear gradient from 0-2 M sodium chloride in the equilibration buffer. Column fractions were analyzed by SDS-PAGE, N-terminal sequencing, and mass spectrometry. Fractions containing the proform of cathepsin K were pooled and frozen at −80° C. The proform was concentrated in an Amicon Centriprep 10 and fractionated with a Superdex 75 column (26 mm×600 mm, Pharmacia) equilibrated in 400 mM sodium chloride, 25 mM sodium acetate at pH 5.5.
Cathepsin K Activation: The proform of cathepsin K was converted to mature cathepsin K by brief exposure to pH 4 in the presence of 5 mM L-cysteine. Typically, 5 mM L-cysteine was added to 10 mL of approximately 1 mg/mL procathepsin K. One mL of this solution was diluted ten-fold into 450 mM sodium acetate at pH 4.0 containing 5 mM L-cysteine. This solution was reacted at 23° C. for 2 min before neutralization with 2 mL 1.8 M sodium acetate at pH 6.0. The neutralized sample was added to the remaining 9 mL of procathepsin K. The mixture was incubated at 4° C. for 2-3 days. The activated cathepsin K was chromatographed on a Poros HS II column as described above.
Potential inhibitors were evaluated using the progress curve method. Assays were carried out in the presence of variable concentrations of test compound. Reactions were initiated by addition of buffered solutions of inhibitor and substrate to enzyme. Data analysis was conducted according to one of two procedures depending on the appearance of the progress curves in the presence of inhibitors. […] Ki values were calculated from IC50 values using equation 2 assuming a competitive model.

| SMILES | Ki [nM] |
| --- | --- |
| CCCCC(NC(=O)OCC1(COc2nnc(C)cc2-c2ccccc2)CCC1)C(=O)C(=O)N[C@H](C)c1ccccc1 (stereo in doubt) [Example 32, (1-{[(6-methyl-4-phenylpyridazin-3-yl)oxy]methyl}cyclobutyl)methyl (1R)-1-(oxo{[(1R)-1-phenylethyl]amino}acetyl)pentylcarbamate] | 10 to 100 |
| CCCC[C@H](NC(=O)OC1(Cc2ccccc2)CCC1)C(=O)C(=O)N[C@H](C)c1ccccc1 [Example 1, 1-Benzylcyclobutyl (1S)-1-(oxo{[(1R)-1-phenylethyl]amino}acetyl)pentylcarbamate] | 100 to 1000 |
| CCCC[C@H](NC(=O)OC1(Cc2ccccc2)CCCC1)C(=O)C(=O)N[C@H](C)c1ccccc1 [Example 2] | 10 to 100 |
| CCCC[C@H](NC(=O)OC1(Cc2ccccc2)CCCCC1)C(=O)C(=O)N[C@H](C)c1ccccc1 [Example 4, 1-Benzylcyclohexyl(1S)-1-(oxo{[(1R)-1-phenylethyl]amino}acetyl)pentylcarbamate] | 100 to 1000 |
| C[C@@H](NC(=O)C(=O)[C@H](CCCCNC(=O)N1CCOCC1)NC(=O)OCC1(Cc2ccccc2)CCCCC1)c1ccccc1 [Example 9, (1-Benzylcyclohexyl)methyl(1S)-5-[(4-morpholinylcarbonyl)amino]-1-(oxo{[(1R)-1-phenylethy]amino}acetyl)pentylcarbamate] | 10 to 100 |
| C[C@@H](NC(=O)C(=O)[C@H](CCCCNC(=O)N1CCOCC1)NC(=O)OCC1(Cc2ccc(F)cc2)CCC1)c1ccccc1 [Example 10, [1-(4-Fluorobenzyl)cyclobutyl]methyl(1S)-5-[(4-morpholinylcarbonyl)amino]-1-(oxo{[(1R)-1-phenylethyl]amino}acetyl)pentylcarbamate] | 10 to 100 |
| C[C@@H](NC(=O)C(=O)[C@H](CCCCNC(=O)N1CCOCC1)NC(=O)OCC1(Cc2ccncc2)CCC1)c1ccccc1 [Example 11, [1-(4-Pyridinylmethyl)cyclobutyl]methyl(1S)-5-[(4-morpholinylcarbonyl)amino]-1-(oxo{[(1R)-1-phenylethyl]amino}acetyl)pentylcarbamate] | 1 to 10 |
| C[C@@H](NC(=O)C(=O)[C@H](CCCCNC(=O)N1CCOCC1)NC(=O)OCC1(Cc2cccnc2)CCC1)c1ccccc1 [Example 12, [1-(3-Pyridinylmethyl)cyclobutyl]methyl(1S)-5-[(4-morpholinylcarbonyl)amino]-1-(oxo{[(1R)-1-phenylethyl]amino}acetyl)pentylcarbamate] | 100 to 1000 |
| CNC(=O)NCCCC[C@H](NC(=O)OCC1(Cc2c(F)cccc2F)CCC1)C(=O)C(=O)N[C@H](C)c1ccccc1 [Example 13, [1-(2,6-Difluorobenzyl)cyclobutyl]methyl(1S)-5-{[(methylamino)carbonyl]amino}-1-(oxo{[(1R)-1-phenylethyl]amino}acetyl)pentylcarbamate] | 10 to 100 |
| CCCC[C@H](NC(=O)OCC1(Cc2ccc(F)cc2)CCC1)C(=O)C(=O)Nc1ccn[nH]1 [Example 14, [1-(4-Fluorobenzyl)cyclobutyl]methyl(1S)-1-[oxo(1H-pyrazol-5-ylamino)acetyl]pentylcarbamate] | < 1 |
| CN(C)S(=O)(=O)NCCCC[C@H](NC(=O)OCC1(Cc2ccc(F)cc2)CCC1)C(=O)C(=O)NCc1cccnc1 [Example 16, [1-(4-Fluorobenzyl)cyclobutyl]methyl(1S)-5-{[(dimethylamino)sulfonyl]amino}-1-{oxo[(3-pyridinylmethyl)amino]acetyl}pentylcarbamate] | 10 to 100 |
| CCCC[C@H](NC(=O)OCC1(Cc2nc(-c3ccccc3)cs2)CCC1)C(=O)C(=O)N[C@H](C)c1ccccc1 [Example 18, {1-[(4-phenyl-1,3-thiazol-2-yl)methyl]cyclobutyl}methyl(1S)-1-(oxo{[(1R)-1-phenylethyl]amino}acetyl)pentylcarbamate] | 1 to 10 |
| CCCC[C@H](NC(=O)OCC1(CSc2nccn2C)CCC1)C(=O)C(=O)N[C@H](C)c1ccccc1 [Example 19, (1-{[(1-methyl-1H-imidazol-2-yl)sulfanyl]methyl}cyclobutyl)methyl (1S)-1-(oxo{[(1R)-1-phenylethyl]amino}acetyl)pentylcarbamate] | 10 to 100 |
| CCCC[C@H](NC(=O)OCC1(COc2ccnc(Cl)n2)CCC1)C(=O)C(=O)N[C@H](C)c1ccccc1 [Example 20, (1-{[(2-chloro-4-pyrimidinyl)oxy]methyl}cyclobutyl)methyl(1S)-1-(oxo{[(1R)-1-phenylethyl]amino}acetyl)pentylcarbamate] | 100 to 1000 |
| CCCC[C@H](NC(=O)OCC1(COc2ccnc(N3CCN(C)CC3)n2)CCC1)C(=O)C(=O)N[C@H](C)c1ccccc1 [Example 21, [1-({[2-(4-methyl-1-piperazinyl)-4-pyrimidinyl]oxy}methyl)cyclobutyl]methyl (1S)-1-(oxo{[(1R)-1-phenylethyl]amino}acetyl)pentylcarbamate] | 10 to 100 |
| CCCC[C@H](NC(=O)OCC1(COc2ccnc(N3CCOCC3)n2)CCC1)C(=O)C(=O)N[C@H](C)c1ccccc1 [Example 22, [1-({[2-(4-morpholinyl)-4-pyrimidinyl]oxy}methyl)cyclobutyl]methyl (1S)-1-(oxo{[(1R)-1-phenylethyl]amino}acetyl)pentylcarbamate] | 10 to 100 |
| CCCC[C@H](NC(=O)OCC1(CSc2ncccn2)CCC1)C(=O)C(=O)N[C@H](C)c1ccccc1 [Example 23, {1-[(2-pyrimidinylsulfanyl)methyl]cyclobutyl}methyl (1S)-1-(oxo{[(1R)-1-phenylethyl]amino}acetyl)pentylcarbamate] | 10 to 100 |
| CCCC[C@H](NC(=O)OCC1(CSc2nc3ccccc3o2)CCC1)C(=O)C(=O)N[C@H](C)c1ccccc1 [Example 24, {1-[(1,3-benzoxazol-2-ylsulfanyl)methyl]cyclobutyl}methyl (1S)-1-(oxo{[(1R)-1-phenylethyl]amino}acetyl)pentylcarbamate] | 10 to 100 |
| CCCC[C@H](NC(=O)OCC1(COc2nccs2)CCC1)C(=O)C(=O)N[C@H](C)c1ccccc1 [Example 25, {1-[(1,3-thiazol-2-yloxy)methyl]cyclobutyl}methyl (1S)-1-(oxo{[(1R)-1-phenylethyl]amino}acetyl)pentylcarbamate] | 10 to 100 |
| CCCC[C@H](NC(=O)OCC1(COc2nc(-c3ccccc3)ns2)CCC1)C(=O)C(=O)N[C@H](C)c1ccccc1 [Example 26, (1-{[(3-phenyl-1,2,4-thiadiazol-5-yl)oxy]methyl}cyclobutyl)methyl (1S)-1-(oxo{[(1R)-1-phenylethyl]amino}acetyl)pentylcarbamate] | 10 to 100 |
| CCCC[C@H](NC(=O)OCC1(COc2ccnc(N3CCN(c4ccccc4)CC3)n2)CCC1)C(=O)C(=O)N[C@H](C)c1ccccc1 [Example 27, [1-({[2-(4-phenyl-1-piperazinyl)-4-pyrimidinyl]oxy}methyl)cyclobutyl]methyl (1S)-1-(oxo{[(1R)-1-phenylethyl]amino}acetyl)pentylcarbamate] | 10 to 100 |
| CCCC[C@H](NC(=O)OCC1(CSc2nccn2-c2ccccc2)CCC1)C(=O)C(=O)N[C@H](C)c1ccccc1 [Example 28, (1-{[(1-phenyl-1H-imidazol-2-yl)sulfanyl]methyl}cyclobutyl)methyl (1S)-1-(oxo{[(1R)-1-phenylethyl]amino}acetyl)pentylcarbamate] | 10 to 100 |
